Laboratory results reported in ChEMBL document CHEMBL5029147 (J Med Chem, 2021).
Calls of active or inactive are those of the source. The calls are words filed in the database; no cut-off is given here.

Tests used:
[1] = Drug uptake in human MCF7 cells at 1 uM measured after 24 hrs in presence of 20 uM chloramphenicol by LC-MS/MS-MRM analysis; type: ADME, cell-based; details: mcf7, 24 h
[2] = Drug uptake in human MCF7 cells at 1 uM measured after 24 hrs in presence of 50 to 100 uM photoCORM delivered CO by LC-MS/MS-MRM analysis; type: ADME, cell-based; details: mcf7, 24 h
MDA-MB-231 [3] = assay: Cytotoxicity against human MDA-MB-231 cells assessed as reduction in cell viability at < 0.5 uM incubated for 24 hrs in presence of 20 uM chloramphenicol by MTT assay; type: functional, cell-based; details: dose microM <0.5, time 24.0 hrs
HepG2 = assay: Cytotoxicity against human HepG2 cells assessed as reduction in cell viability incubated for 24 hrs in presence of chloramphenicol by MTT assay; type: functional, cell-based
MDA-MB-231 [4] = assay: Cytotoxicity against human MDA-MB-231 cells assessed as reduction in cell viability incubated for 24 hrs in presence of chloramphenicol by MTT assay; type: functional, cell-based
[5] = Drug uptake in human MCF7 cells at 1 uM measured after 24 hrs in presence of 100 uM photoCORM delivered CO by LC-MS/MS-MRM analysis; type: ADME, cell-based; details: mcf7, 24 h
[6] = Drug metabolism in human MCF7 cells assessed as intracellular hydroxy-PTX metabolite formation at 1 uM measured after 24 hrs by LC-MS/MS-MRM analysis; type: ADME, cell-based; details: mcf7, 24 h
[7] = Drug metabolism in human MDA-MB-231 cells assessed as intracellular hydroxy-PTX metabolite formation measured after 24 hrs by LC-MS/MS-MRM analysis; type: ADME, cell-based; details: mda-mb-231, 24 h
[8] = Drug uptake in human MCF7 cells at 0.2 to 1 uM measured after 24 hrs by HPLC-MS/MS-MRM analysis; type: ADME, cell-based; details: mcf7, 24 h, dose 0.2-1 µM
[9] = Drug uptake in human HepG2 cells at 1 to 2 uM measured after 24 hrs in presence of photoCORM delivered CO by LC-MS/MS-MRM analysis; type: ADME, cell-based; details: hepg2, 24 h, dose 1-2 µM
[10] = Drug metabolism in human MCF7 cells assessed as decline in intracellular hydroxy-PTX metabolite level at 1 uM measured after 24 hrs in presence of 50 to 100 uM photoCORM delivered CO by LC-MS/MS-MRM analysis; type: ADME, cell-based; details: mcf7, 24 h
MCF7 [11] = assay: Effect on CYP2C8 expression in human MCF7 cells at 0.5 to 1 uM incubated for 24 hrs by western blot analysis; type: functional, cell-based; details: dose 0.5-1 µM
MCF7 [12] = assay: Effect on BCRP expression in human MCF7 cells at 0.5 to 1 uM incubated for 24 hrs by western blot analysis; type: functional, cell-based; details: dose 0.5-1 µM
[13] = Drug metabolism in human MCF7 cells assessed as intracellular hydroxy-PTX metabolite formation at 0.2 to 1 uM measured after 24 hrs by HPLC-MS/MS-MRM analysis; type: ADME, cell-based; details: mcf7, 24 h, dose 0.2-1 µM

Drug uptake [1]: Not Active | Drug uptake [2]: Not Active | Drug uptake [5]: Not Active | Drug metabolism [6]: 1 fmol/µg | Drug metabolism [7]: Metabolite_Notdetected | Drug uptake [8]: Active | Drug uptake [9]: Active | Drug metabolism [10]: Metabolite_Notdetected | Drug metabolism [13]: Metabolite_Detected
SMILES: CC(=O)O[C@H]1C(=O)[C@@]2(C)[C@H]([C@H](OC(=O)c3ccccc3)[C@]3(O)C[C@H](OC(=O)[C@H](O)[C@@H](NC(=O)c4ccccc4)c4ccccc4)C(C)=C1C3(C)C)[C@]1(OC(C)=O)CO[C@@H]1C[C@@H]2O [PACLITAXEL]
Activity (MDA-MB-231 [3]): Active | Activity (HepG2): Active | Activity (MDA-MB-231 [4]): Active | Activity (MCF7 [11]): inactive | Activity (MCF7 [12]): inactive
